From patent US20250222146A1, “Radiopharmaceuticals Targeting Somatostatin Receptor 2 and Uses Thereof” (RayzeBio, Inc., priority 2023, published 2025)
pKi: −log10 of the molar value. Numbered stars: 1 amine (or outer) side, 2 acyl side, 3 side chain; on linkers, the order of the positions; unused ones are H or OH. Square brackets hold non-standard residues; d marks the D form. Side chains are listed from the residue outwards. Peptide text beside a SMILES is read from it. * marks the point of attachment. ξ: configuration not given here. DOTA(Lu)NH(CH2)6NHCOCH2 = O=C(CN1CCN2CCN3CCN(CC1)CC(=O)[O][Lu]([O]C(=O)C2)[O]C(=O)C3)NCCCCCCNC(=O)C*; DOTA(Lu) = O=C1CN2CCN3CCN(CC(=O)*)CCN(CC2)CC(=O)[O][Lu]([O]1)[O]C(=O)C3; Ala(piperidin-4-yl) = O=C([C@H](CC1CCN([*:3])CC1)N[*:1])[*:2]; DOTA = O=C(O)CN1CCN(CC(=O)O)CCN(CC(=O)*)CCN(CC(=O)O)CC1; dTrp(βS-Me) = C[C@@H](c1c[nH]c2ccccc12)[C@@H](N)C(=O)O; N(6-aminohexyl)Gly = O=C(CN(CCCCCCN[*:3])[*:1])[*:2]; Ala(piperazin-1-yl) = N[C@@H](CN1CCNCC1)C(=O)O; Tyr(Ph) = N[C@@H](Cc1ccc(Oc2ccccc2)cc1)C(=O)O; NOTA = O=C(O)CN1CCN(CC(=O)O)CCN(CC(=O)*)CC1; X16 = NC1CCC(C[C@H](N[*:1])C(=O)[*:2])CC1; Dip = N[C@H](C(=O)O)C(c1ccccc1)c1ccccc1; Lys(5ξ-OH) = NCC(O)CC[C@H](N)C(=O)O; Ethylenediamine = C(CN[*:2])N[*:1]; Hyp = O=C(O)[C@@H]1C[C@@H](O)CN1; NMehLys = CN[C@@H](CCCCCN)C(=O)O; Trx = NC[C@H]1CC[C@H](C(=O)O)CC1; X13 = NCCCCN(N[*:1])C(=O)[*:2]; dPhg = N[C@@H](C(=O)O)c1ccccc1; NMehCys = CN[C@@H](CCS)C(=O)O; NMeK = CN[C@@H](CCCCN)C(=O)O; NMeDap = CN[C@@H](CN)C(=O)O; CO = O=C([*:1])[*:2]; Inp = O=C(O)C1CCNCC1; Ava = NCCCCC(=O)O; Bn = c1ccc(C*)cc1; GABA = NCCCC(=O)O; βAla = NCCC(=O)O

Biological target: SSTR2 (Homo sapiens, UniProt P30874)
Assay: SSTR binding affinity by radioligand binding competition assay ([125I]-Tyr11-Somatostatin, membrane extracts)
Conditions: radioligand competition, [125I]-Tyr11-Somatostatin 0.1 nM, membrane extracts; Ki from IC50 by Cheng Prusoff; read-out: SSTR2 Ki

SSTR2, sequence (P30874 whole entry): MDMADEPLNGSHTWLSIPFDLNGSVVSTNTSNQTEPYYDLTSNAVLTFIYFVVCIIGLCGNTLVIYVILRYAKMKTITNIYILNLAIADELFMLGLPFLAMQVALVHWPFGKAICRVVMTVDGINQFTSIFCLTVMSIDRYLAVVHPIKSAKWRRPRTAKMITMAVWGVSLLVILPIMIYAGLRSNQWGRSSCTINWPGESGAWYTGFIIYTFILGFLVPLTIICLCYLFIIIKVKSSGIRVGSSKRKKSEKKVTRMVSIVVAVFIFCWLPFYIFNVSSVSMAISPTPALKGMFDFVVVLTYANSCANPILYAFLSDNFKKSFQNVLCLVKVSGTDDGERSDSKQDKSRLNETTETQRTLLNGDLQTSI

| Structure (SMILES) | pKi |
| --- | --- |
| C[C@@H](O)[C@@H]1NC(=O)[C@H](CC2CCNCC2)NC(=O)[C@@H]([C@@H](C)c2c[nH]c3ccccc23)NC(=O)[C@H](Cc2ccc(O)cc2)NC(=O)[C@H](CNC(=O)[C@H](CCC(=O)O)NC(=O)CN2CCN3CCN4CCN(CC2)CC(=O)[O][Lu]([O]C(=O)C3)[O]C(=O)C4)N(C)C(=O)[C@H](Cc2ccccc2)NC1=O [RB-0006215] (cyclo(F[NMeDap]([Glu-DOTA(Lu)])Y[dTrp(βS-Me)][Ala(piperidin-4-yl)]T)) | 7.48 to 8.00 |
| C[C@@H](O)[C@@H]1NC(=O)N(CCCCN)NC(=O)[C@@H](Cc2c[nH]c3ccccc23)NC(=O)[C@H](Cc2ccc(O)cc2)NC(=O)[C@H](CCCCNC(=O)CN2CCN3CCN4CCN(CC2)CC(=O)[O][Lu]([O]C(=O)C3)[O]C(=O)C4)N(C)C(=O)[C@H](Cc2ccccc2)NC1=O [RB-0006217] (cyclo(F[NMeK](DOTA(Lu))Y[dW][X13]T)) | > 9.00 |
| C[C@@H](O)[C@@H]1NC(=O)[C@H](CC2CCNCC2)NC(=O)[C@@H]([C@@H](C)c2c[nH]c3ccccc23)NC(=O)[C@H](Cc2ccc(Oc3ccccc3)cc2)NC(=O)[C@H](CCCCNC(=O)CN2CCN3CCN4CCN(CC2)CC(=O)[O][Lu]([O]C(=O)C3)[O]C(=O)C4)N(C)C(=O)[C@H](Cc2ccccc2)NC1=O [RB-0006237] (cyclo(F[NMeK](DOTA(Lu))[Tyr(Ph)][dTrp(βS-Me)][Ala(piperidin-4-yl)]T)) | 8.00 to 8.48 |
| C[C@@H](O)[C@@H]1NC(=O)[C@H](CC2CCNCC2)NC(=O)[C@@H]([C@@H](C)c2c[nH]c3ccccc23)NC(=O)[C@H](C(c2ccccc2)c2ccccc2)NC(=O)[C@H](CCCCNC(=O)CN2CCN3CCN4CCN(CC2)CC(=O)[O][Lu]([O]C(=O)C3)[O]C(=O)C4)N(C)C(=O)[C@H](Cc2ccccc2)NC1=O [RB-0006239] (cyclo([Dip][dTrp(βS-Me)][Ala(piperidin-4-yl)]TF[NMeK](DOTA(Lu)))) | 7.48 to 8.00 |
| C[C@@H](O)[C@@H]1NC(=O)[C@H](CC2CCNCC2)NC(=O)[C@@H]([C@@H](C)c2c[nH]c3ccccc23)NC(=O)[C@H](Cc2ccc(O)cc2)NC(=O)[C@H](CCCCNC(=O)CN2CCN(CC(=O)O)CCN(CC(=O)O)CC2)N(C)C(=O)[C@H](Cc2ccccc2)NC1=O [RB-0006286] (cyclo([NMeK](NOTA)Y[dTrp(βS-Me)][Ala(piperidin-4-yl)]TF)) | 8.48 to 9.00 |
| C[C@@H](O)[C@@H]1NC(=O)[C@H](CCC(O)CN)NC(=O)[C@@H](Cc2c[nH]c3ccccc23)NC(=O)[C@H](Cc2ccc(O)cc2)NC(=O)[C@H](CCSCC(=O)NCCCCCCNC(=O)CN2CCN3CCN4CCN(CC2)CC(=O)[O][Lu]([O]C(=O)C3)[O]C(=O)C4)N(C)C(=O)[C@H](Cc2ccccc2)NC1=O (stereo partly drawn) [RB-0006317] (cyclo(F[NMehCys](DOTA(Lu)NH(CH2)6NHCOCH2)Y[dW][Lys(5ξ-OH)]T)) | > 9.00 |
| C[C@@H]1NC(=O)[C@H](CC2CCNCC2)NC(=O)[C@@H]([C@@H](C)c2c[nH]c3ccccc23)NC(=O)[C@H](Cc2ccc(O)cc2)NC(=O)[C@H](CCCCNC(=O)CN2CCN3CCN4CCN(CC2)CC(=O)[O][Lu]([O]C(=O)C3)[O]C(=O)C4)N(C)C(=O)[C@H](Cc2ccccc2)NC1=O [RB-0006319] (cyclo(AF[NMeK](DOTA(Lu))Y[dTrp(βS-Me)][Ala(piperidin-4-yl)])) | > 9.00 |
| C[C@@H](O)[C@@H]1NC(=O)[C@H](CCC(O)CN)NC(=O)[C@H](Cc2c[nH]c3ccccc23)NC(=O)[C@H](Cc2ccc(O)cc2)NC(=O)[C@H](CCSCC(=O)NCCCCCCNC(=O)CN2CCN3CCN4CCN(CC2)CC(=O)[O][Lu]([O]C(=O)C3)[O]C(=O)C4)N(C)C(=O)[C@H](Cc2ccccc2)NC1=O (stereo partly drawn) [RB-0006385] (cyclo(F[NMehCys](DOTA(Lu)NH(CH2)6NHCOCH2)YW[Lys(5ξ-OH)]T)) | > 9.00 |
| C[C@@H](O)[C@@H]1NC(=O)[C@H](CC2CCC(N)CC2)NC(=O)[C@@H]([C@@H](C)c2c[nH]c3ccccc23)NC(=O)[C@H](Cc2ccc(O)cc2)NC(=O)[C@H](CCCCNC(=O)CN2CCN3CCN4CCN(CC2)CC(=O)[O][Lu]([O]C(=O)C3)[O]C(=O)C4)N(C)C(=O)[C@H](Cc2ccccc2)NC1=O (stereo partly drawn) [RB-0006387] (cyclo(F[NMeK](DOTA(Lu))Y[dTrp(βS-Me)][X16]T)) | > 9.00 |
| C[C@@H](O)[C@@H]1NC(=O)[C@H](CC2CCNCC2)NC(=O)[C@@H]([C@@H](C)c2c[nH]c3ccccc23)NC(=O)[C@H](Cc2ccc(O)cc2)NC(=O)CN(CCCCCCNC(=O)CN2CCN3CCN4CCN(CC2)CC(=O)[O][Lu]([O]C(=O)C3)[O]C(=O)C4)C(=O)[C@H](Cc2ccccc2)NC1=O [RB-0006389] (cyclo(F[N(6-aminohexyl)Gly](DOTA(Lu))Y[dTrp(βS-Me)][Ala(piperidin-4-yl)]T)) | > 9.00 |
| C[C@@H](O)[C@@H]1NC(=O)[C@H](CC2CCNCC2)NC(=O)[C@@H]([C@@H](C)c2c[nH]c3ccccc23)NC(=O)[C@H](Cc2ccc(O)cc2)NC(=O)[C@@H]2C[C@@H](OC(=O)NCCNC(=O)CN3CCN4CCN5CCN(CC3)CC(=O)[O][Lu]([O]C(=O)C4)[O]C(=O)C5)CN2C(=O)[C@H](Cc2ccccc2)NC1=O [RB-0006395] (cyclo(F[Hyp]([CO-Ethylenediamine-DOTA(Lu)])Y[dTrp(βS-Me)][Ala(piperidin-4-yl)]T)) | > 9.00 |
| C[C@@H](O)[C@@H]1NC(=O)[C@H](CC2CCNCC2)NC(=O)[C@@H]([C@@H](C)c2c[nH]c3ccccc23)NC(=O)[C@H](Cc2ccc(O)cc2)NC(=O)[C@H](CCCCNC(=O)CNC(=O)CN2CCN3CCN4CCN(CC2)CC(=O)[O][Lu]([O]C(=O)C3)[O]C(=O)C4)N(C)C(=O)[C@H](Cc2ccccc2)NC1=O [RB-0006397] (cyclo(F[NMeK]([Gly-DOTA(Lu)])Y[dTrp(βS-Me)][Ala(piperidin-4-yl)]T)) | 8.48 to 9.00 |
| C[C@@H](O)[C@@H]1NC(=O)[C@H](CC2CCNCC2)NC(=O)[C@@H]([C@@H](C)c2c[nH]c3ccccc23)NC(=O)[C@H](Cc2ccc(O)cc2)NC(=O)[C@H](CCCCNC(=O)CCNC(=O)CN2CCN3CCN4CCN(CC2)CC(=O)[O][Lu]([O]C(=O)C3)[O]C(=O)C4)N(C)C(=O)[C@H](Cc2ccccc2)NC1=O [RB-0006400] (cyclo(F[NMeK]([βAla-DOTA(Lu)])Y[dTrp(βS-Me)][Ala(piperidin-4-yl)]T)) | 8.48 to 9.00 |
| C[C@@H](O)[C@@H]1NC(=O)[C@H](CC2CCNCC2)NC(=O)[C@@H]([C@@H](C)c2c[nH]c3ccccc23)NC(=O)[C@H](Cc2ccc(O)cc2)NC(=O)[C@H](CCCCNC(=O)CCCNC(=O)CN2CCN3CCN4CCN(CC2)CC(=O)[O][Lu]([O]C(=O)C3)[O]C(=O)C4)N(C)C(=O)[C@H](Cc2ccccc2)NC1=O [RB-0006403] (cyclo(F[NMeK]([GABA-DOTA(Lu)])Y[dTrp(βS-Me)][Ala(piperidin-4-yl)]T)) | 8.48 to 9.00 |
| C[C@@H](O)[C@@H]1NC(=O)[C@H](CC2CCNCC2)NC(=O)[C@@H]([C@@H](C)c2c[nH]c3ccccc23)NC(=O)[C@H](Cc2ccc(O)cc2)NC(=O)[C@H](CCCCNC(=O)CCCCNC(=O)CN2CCN3CCN4CCN(CC2)CC(=O)[O][Lu]([O]C(=O)C3)[O]C(=O)C4)N(C)C(=O)[C@H](Cc2ccccc2)NC1=O [RB-0006406] (cyclo(F[NMeK]([Ava-DOTA(Lu)])Y[dTrp(βS-Me)][Ala(piperidin-4-yl)]T)) | 8.48 to 9.00 |
| C[C@@H](O)[C@@H]1NC(=O)[C@H](CN2CCNCC2)NC(=O)[C@@H]([C@@H](C)c2c[nH]c3ccccc23)NC(=O)[C@H](Cc2ccc(O)cc2)NC(=O)[C@H](CCCCNC(=O)CC[C@@H]2C(=O)[O][Ga]3[O]C(=O)CN4CCN(CCN2CC4)CC(=O)[O]3)N(C)C(=O)[C@H](Cc2ccccc2)NC1=O [RB-0006414] | 8.48 to 9.00 |
| C[C@@H](O)[C@@H]1NC(=O)[C@H](CN2CCNCC2)NC(=O)[C@@H]([C@@H](C)c2c[nH]c3ccccc23)NC(=O)[C@H](Cc2ccc(O)cc2)NC(=O)[C@H](CCCCNC(=O)[C@H]2CC[C@H](CNC(=O)CN3CCN4CCN5CCN(CC3)CC(=O)[O][Lu]([O]C(=O)C4)[O]C(=O)C5)CC2)N(C)C(=O)[C@H](Cc2ccccc2)NC1=O [RB-0006420] (cyclo(F[NMeK]([Trx-DOTA(Lu)])Y[dTrp(βS-Me)][Ala(piperazin-1-yl)]T)) | 8.48 to 9.00 |
| C[C@@H](O)[C@@H]1NC(=O)[C@H](CC2CCNCC2)NC(=O)[C@@H]([C@@H](C)c2c[nH]c3ccccc23)NC(=O)[C@H](Cc2ccc(O)cc2)NC(=O)[C@H](CCCCCNC(=O)CN2CCN3CCN4CCN(CC2)CC(=O)[O][Lu]([O]C(=O)C3)[O]C(=O)C4)N(C)C(=O)[C@H](Cc2ccccc2)NC1=O [RB-0006449] (cyclo(F[NMehLys](DOTA(Lu))Y[dTrp(βS-Me)][Ala(piperidin-4-yl)]T)) | > 9.00 |
| C[C@@H](O)[C@@H]1NC(=O)[C@H](CC2CCNCC2)NC(=O)[C@@H]([C@@H](C)c2c[nH]c3ccccc23)NC(=O)[C@H](Cc2ccc(O)cc2)NC(=O)[C@H](CCCCNC(=O)C2CCN(C(=O)CN3CCN4CCN5CCN(CC3)CC(=O)[O][Lu]([O]C(=O)C5)[O]C(=O)C4)CC2)N(C)C(=O)[C@H](Cc2ccccc2)NC1=O [RB-0006452] (cyclo(F[NMeK]([Inp-DOTA(Lu)])Y[dTrp(βS-Me)][Ala(piperidin-4-yl)]T)) | 8.48 to 9.00 |

Same assay, conditions: read-out: SSTR2 Ki; radioligand competition, [125I]-Tyr11-Somatostatin 0.1 nM, membrane extracts; Ki from IC50 by Cheng Prusoff

| Structure (SMILES) | pKi |
| --- | --- |
| C[C@@H](c1c[nH]c2ccccc12)[C@H]1NC(=O)[C@@H](c2ccccc2)NC(=O)[C@@H]2C[C@@H](OC(=O)NCCNC(=O)CN3CCN(CC(=O)O)CCN(CC(=O)O)CCN(CC(=O)O)CC3)CN2C(=O)[C@H](Cc2ccccc2)NC(=O)[C@H](Cc2ccc(OCc3ccccc3)cc2)NC(=O)[C@H](CC2CCNCC2)NC1=O [RB-0006391] (cyclo(F[Hyp]([CO-Ethylenediamine-DOTA])[dPhg][dTrp(βS-Me)][Ala(piperidin-4-yl)]Y(Bn))) | 7.00 to 7.48 |
| C[C@@H](c1c[nH]c2ccccc12)[C@H]1NC(=O)[C@H](Cc2ccc(O)cc2)NC(=O)[C@@H]2C[C@@H](OC(=O)NCCNC(=O)CN3CCN(CC(=O)O)CCN(CC(=O)O)CCN(CC(=O)O)CC3)CN2C(=O)[C@H](Cc2ccccc2)NC(=O)[C@H](Cc2ccc(OCc3ccccc3)cc2)NC(=O)[C@H](CC2CCNCC2)NC1=O [RB-0006393] (cyclo(F[Hyp]([CO-Ethylenediamine-DOTA])Y[dTrp(βS-Me)][Ala(piperidin-4-yl)]Y(Bn))) | > 9.00 |
